The results in this text go back to article PMC3707936 (Molecular cancer therapeutics, 2013).

Like-named read-outs stand apart in the source and are kept apart here. *1 amine or outer side, *2 acyl side, *3 side chain or, on linkers, in order; H or OH if unused. Where a SMILES comes first, the peptide text is derived from it. Bridges are numbered along the chain shown (N, C = ends). Roman numbers before positions name the chains, in order. [ ]: non-standard residue; d: D form. Actinocin(9to1) = Cc1c2oc3c(C)ccc(C(=O)[*:1])c3nc-2c(C(=O)[*:2])c(N)c1=O; NMeV = CN[C@H](C(=O)O)C(C)C; Sar = CNCC(=O)O

What all share (assay type): cell-based
The test system of assay [1] is GIST T1-10R cells. Nature of the assay: Quantitative drug screen, CellTiter-Blue cell viability, GIST T1-10R. The following applies: 72 h, read-out: IC50 GIST TI-10R.
The next assay relates to ULTR cells. As to the kind of experiment: Quantitative drug screen, CellTiter-Blue cell viability, ULTR. As to conditions: read-out: IC50 ULTR. A general note: Resazurin is reduced to fluorescent resorufin, in cell work by metabolically active cells.
Assay [2] relates to GIST 882 cells. As to the kind of experiment: Quantitative drug screen, CellTiter-Blue cell viability, GIST 882. As to conditions: Homo sapiens, GIST882, 72 h, read-out: IC50 GIST 882.
Assay [3] relates to GIST T1-10R cells. Nature of the assay: Hit validation cell proliferation, 12-point dose-response, GIST T1-10R. As to conditions: 72 h, read-out: IC50 GIST T1-10R.
Assay [4] concerns GIST 882 cells. As to the kind of experiment: Hit validation cell proliferation, 12-point dose-response, GIST 882. As to conditions: Homo sapiens, GIST882, 72 h, read-out: IC50 GIST 882.
Assay [5] deals with Hs 919.T. cells. As to the kind of experiment: Drug screen assay in Hs 919.T. cell line at 1 μM. As to conditions: 72 h; for inhibition at 1 µM: read-out: inhibition against Hs 919.T. cell proliferation.
Assay [6] has as its system Hs 919.T. cells. Nature of the assay: Hit validation cell proliferation, 12-point dose-response, Hs 919.T. As to conditions: read-out: IC50 Hs 919.T.
The subject of another assay is GIST-T1 cells. Nature of the assay: Quantitative drug screen, CellTiter-Blue cell viability, GIST-T1. The following applies: read-out: IC50 GIST-T1.

With `CCCSc1ccc2nc(NC(=O)OC)[nH]c2c1` [Albendazole], the IC50 was over 1 µM in the assay with GIST T1-10R cells [1], 0.32 µM with ULTR cells (72 h) and over 1 µM in the assay on GIST 882 cells [2].

`COc1cc(NS(C)(=O)=O)ccc1Nc1c2ccccc2nc2ccccc12` [Amsacrine]: the IC50 with GIST T1-10R cells [1], in the assay on ULTR cells (72 h) and in the assay on GIST 882 cells [2] was over 1 µM each time.

As for `CC(C)C[C@H](NC(=O)[C@H](Cc1ccccc1)NC(=O)c1cnccn1)B(O)O` [Bortezomib], the IC50 was 0.001 ± 0.001 µM in the assay with GIST T1-10R cells [3]; 0.002 ± 0.0003 µM in the assay with GIST 882 cells [4]; 0.5 µM in the assay on GIST T1-10R cells [1]; under 0.07 µM with ULTR cells (72 h); under 0.07 µM with GIST 882 cells [2]; 0.15 ± 0.01 µM with Hs 919.T. cells [6]. For the same compound, the inhibition at 1 µM in the assay with Hs 919.T. cells [5] was over 50%.

In the case of `CCOC(=O)n1ccn(C)c1=S` [Carbimazole], the IC50 is 0.18 µM in the assay with GIST T1-10R cells [1], under 0.07 µM in the assay on ULTR cells (72 h) and 0.05 µM in the assay on GIST 882 cells [2].

`CCN(CC)CCCC(C)Nc1ccnc2cc(Cl)ccc12` (centres unmarked) [Chloroquine]: the IC50 in the assay with GIST T1-10R cells [1] was over 1 µM; in the assay on ULTR cells (72 h), over 1 µM; in the assay on GIST 882 cells [2], 0.46 µM.

On to `Nc1nc(Cl)nc2c1ncn2[C@H]1C[C@H](O)[C@@H](CO)O1` [Cladribine], for which the 50% inhibitory concentration (IC50) was over 1 µM in the assay on GIST T1-10R cells [1], 0.54 µM with ULTR cells (72 h) and 0.76 µM in the assay on GIST 882 cells [2].

On to `Nc1nc(Cl)nc2c1ncn2[C@@H]1O[C@H](CO)[C@@H](O)[C@@H]1F` [Clofarabine], for which the IC50 was over 1 µM in the assay with GIST T1-10R cells [1], 0.18 µM in the assay with ULTR cells (72 h) and 0.99 µM with GIST 882 cells [2].

In the case of `Cc1c2oc3c(C)ccc(C(=O)N[C@@H]4C(=O)N[C@H](C(C)C)C(=O)N5CCC[C@H]5C(=O)N(C)CC(=O)N(C)[C@@H](C(C)C)C(=O)O[C@@H]4C)c3nc-2c(C(=O)N[C@@H]2C(=O)N[C@H](C(C)C)C(=O)N3CCC[C@H]3C(=O)N(C)CC(=O)N(C)[C@@H](C(C)C)C(=O)O[C@@H]2C)c(N)c1=O` [Dactinomycin] (I: T[dV]P[Sar][NMeV] / II: T[dV]P[Sar][NMeV]; ester I:1-I:C, II:1-II:C; linker I:N-II:N via Actinocin(9to1)), the 50% inhibitory concentration (IC50) in the assay with GIST T1-10R cells [1] was over 1 µM; in the assay on ULTR cells (72 h) it was under 0.07 µM; in the assay with GIST 882 cells [2] it was under 0.07 µM. For the same compound, the inhibition at 1 µM in the assay on Hs 919.T. cells [5] was over 50%.

Turning to `C#C[C@]1(O)CC[C@H]2[C@@H]3CCC4=Cc5oncc5C[C@]4(C)[C@H]3CC[C@@]21C` [Danazol], the values for the 50% inhibitory concentration (IC50) in the assay with GIST T1-10R cells [1], with ULTR cells (72 h) and with GIST 882 cells [2] were over 1 µM, over 1 µM and 0.67 µM, respectively.

In the case of `COc1cccc2c1C(=O)c1c(O)c3c(c(O)c1C2=O)C[C@@](O)(C(C)=O)C[C@@H]3O[C@H]1C[C@H](N)[C@H](O)[C@H](C)O1` [Daunorubicin], the IC50 is over 1 µM in the assay on GIST T1-10R cells [1], under 0.07 µM in the assay with ULTR cells (72 h) and 0.17 µM with GIST 882 cells [2]. For the same compound, the inhibition at 1 µM with Hs 919.T. cells [5] was over 50%.

Turning to `C[C@H]1O[C@@H](O[C@H]2[C@@H](O)C[C@H](O[C@H]3[C@@H](O)C[C@H](O[C@H]4CC[C@@]5(C)[C@H](CC[C@@H]6[C@@H]5CC[C@]5(C)[C@@H](C7=CC(=O)OC7)CC[C@]65O)C4)O[C@@H]3C)O[C@@H]2C)C[C@H](O)[C@@H]1O` [Digitoxin], the results for the IC50 in the assay on GIST T1-10R cells [1], with ULTR cells (72 h) and in the assay with GIST 882 cells [2] were over 1 µM, under 0.07 µM and 0.16 µM, respectively.

In the case of `C[C@H]1O[C@@H](O[C@H]2[C@@H](O)C[C@H](O[C@H]3[C@@H](O)C[C@H](O[C@H]4CC[C@@]5(C)[C@H](CC[C@@H]6[C@@H]5C[C@@H](O)[C@]5(C)[C@@H](C7=CC(=O)OC7)CC[C@]65O)C4)O[C@@H]3C)O[C@@H]2C)C[C@H](O)[C@@H]1O` [Digoxin], the results for the 50% inhibitory concentration (IC50) in the assay on GIST T1-10R cells [1], in the assay on ULTR cells (72 h) and with GIST 882 cells [2] were 0.93 µM, 0.16 µM and 0.79 µM, respectively. The inhibition at 1 µM in the assay on Hs 919.T. cells [5] was over 50%.

In the case of `COc1cccc2c1C(=O)c1c(O)c3c(c(O)c1C2=O)C[C@@](O)(C(=O)CO)C[C@@H]3O[C@H]1C[C@H](N)[C@H](O)[C@H](C)O1` [Doxorubicin], the IC50 in the assay with GIST T1-10R cells [1] is over 1 µM; with ULTR cells (72 h) it was 0.16 µM; in the assay with GIST 882 cells [2] it was 0.08 µM. Also, in the assay with Hs 919.T. cells [5], the inhibition at 1 µM was over 50%.

For the compound `COc1cc([C@@H]2c3cc4c(cc3[C@@H](O[C@@H]3O[C@@H]5CO[C@@H](C)O[C@H]5[C@H](O)[C@H]3O)[C@H]3COC(=O)[C@H]23)OCO4)cc(OC)c1O` [Etoposide], the values for the 50% inhibitory concentration (IC50) in the assay on GIST T1-10R cells [1], in the assay with ULTR cells (72 h) and with GIST 882 cells [2] were over 1 µM, over 1 µM and 0.03 µM, respectively.

In the case of `Nc1nc(F)nc2c1ncn2[C@@H]1O[C@H](COP(=O)(O)O)[C@@H](O)[C@@H]1O` [Fludarabine Phosphate], the IC50 was 0.84 ± 0.2 µM in the assay on GIST T1-10R cells [3]; 0.54 ± 0.03 µM in the assay on GIST 882 cells [4]; 0.81 µM with GIST T1-10R cells [1]; over 1 µM in the assay with ULTR cells (72 h); over 1 µM with GIST 882 cells [2].

As to `CN(C)c1ccc(C(=C2C=CC(=[N+](C)C)C=C2)c2ccc(N(C)C)cc2)cc1` [Gentian Violet], the IC50 came out at 0.96 µM in the assay on GIST T1-10R cells [1], 0.16 µM in the assay with ULTR cells (72 h) and 0.25 µM in the assay with GIST 882 cells [2].

For `CC(=O)[C@]1(O)Cc2c(O)c3c(c(O)c2[C@@H](O[C@H]2C[C@H](N)[C@H](O)[C@H](C)O2)C1)C(=O)c1ccccc1C3=O` [Idarubicin], the half-maximal inhibitory concentration (IC50) is 0.05 ± 0.01 µM in the assay with GIST T1-10R cells [3]; 0.13 ± 0.04 µM in the assay with GIST 882 cells [4]; 0.69 µM with GIST T1-10R cells [1]; under 0.07 µM with ULTR cells (72 h); 0.05 µM with GIST 882 cells [2]; 0.07 ± 0.003 µM in the assay with Hs 919.T. cells [6]. In addition, the inhibition at 1 µM in the assay on Hs 919.T. cells [5] was over 50%.

Turning to `COC(=O)Nc1nc2ccc(C(=O)c3ccccc3)cc2[nH]1` [Mebendazole], the IC50 is over 1 µM with GIST T1-10R cells [1], 0.73 µM with ULTR cells (72 h) and over 1 µM with GIST 882 cells [2].

For `O=C1c2c(O)ccc(O)c2C(=O)c2c(NCCNCCO)ccc(NCCNCCO)c21` [Mitoxantrone], the half-inhibitory concentration (IC50) with GIST T1-10R cells [1] is over 1 µM; in the assay on ULTR cells (72 h), under 0.07 µM; with GIST 882 cells [2], 0.08 µM. Also, the inhibition at 1 µM in the assay with Hs 919.T. cells [5] was over 50%.

On to `Cc1cn(-c2cc(NC(=O)c3ccc(C)c(Nc4nccc(-c5cccnc5)n4)c3)cc(C(F)(F)F)c2)cn1` [Nilotimb], for which, in the assay on GIST-T1 cells (primary screen, 72 h, 10 μM to […] twofold dilutions, * = IC50 < 0.07 μM and drug showed no dose response), the IC50 was determined as 0.38 µM.

On to `C[C@@H]1O[C@@H](O[C@H]2C[C@@H](O)[C@]3(CO)[C@H]4[C@H](O)C[C@]5(C)[C@@H](C6=CC(=O)OC6)CC[C@]5(O)[C@@H]4CC[C@]3(O)C2)[C@H](O)[C@H](O)[C@H]1O` [Ouabain], for which the figures for the IC50 in the assay on GIST T1-10R cells [1], in the assay on ULTR cells (72 h) and with GIST 882 cells [2] were 0.24 µM, under 0.07 µM and 0.03 µM, respectively.

Turning to `CC(=O)O[C@H]1C(=O)[C@@]2(C)[C@H]([C@H](OC(=O)c3ccccc3)[C@]3(O)C[C@H](OC(=O)[C@H](O)[C@@H](NC(=O)c4ccccc4)c4ccccc4)C(C)=C1C3(C)C)[C@]1(OC(C)=O)CO[C@@H]1C[C@@H]2O` [Paclitaxel], the figures for the IC50 in the assay on GIST T1-10R cells [1], with ULTR cells (72 h) and in the assay on GIST 882 cells [2] were over 1 µM, 0.2 µM and over 1 µM, respectively.

For the compound `COc1cc([C@@H]2c3cc4c(cc3[C@@H](O[C@@H]3O[C@@H]5CO[C@@H](c6cccs6)O[C@H]5[C@H](O)[C@H]3O)[C@H]3COC(=O)[C@H]23)OCO4)cc(OC)c1O` [Teniposide], the IC50 is over 1 µM in the assay with GIST T1-10R cells [1], 0.19 µM in the assay on ULTR cells (72 h) and 0.09 µM with GIST 882 cells [2].

Regarding `CC[C@@]1(O)C(=O)OCc2c1cc1n(c2=O)Cc2cc3c(CN(C)C)c(O)ccc3nc2-1` [Topotecan], the IC50 in the assay with GIST T1-10R cells [1] is over 1 µM; in the assay with ULTR cells (72 h), 0.09 µM; in the assay on GIST 882 cells [2], 0.44 µM.

With `CCC1=C[C@@H]2CN(C1)Cc1c([nH]c3ccccc13)[C@@](C(=O)OC)(c1cc3c(cc1OC)N(C)[C@H]1[C@@](O)(C(=O)OC)[C@H](OC(C)=O)[C@]4(CC)C=CCN5CC[C@]31[C@@H]54)C2` [Vinorelbine], the values for the IC50 with GIST T1-10R cells [1], with ULTR cells (72 h) and in the assay on GIST 882 cells [2] were over 1 µM, 0.08 µM and over 1 µM, respectively. Moreover, the inhibition at 1 µM with Hs 919.T. cells [5] is over 50%.

On to Plicamycin, for which, in the assay on Hs 919.T. cells [5] (1 μM drug), the “inhibition against Hs 919.T. cell proliferation” value is “greater than 50%”. The figures for the IC50 with ULTR cells and in the assay on GIST-T1 cells were 0.15 µM and 0.35 µM, respectively.

By IC50 is commonly meant the concentration that inhibits the measured activity by half.
